Measurements: patent US20030224403A1 (priority 2002, published 2003)
Where “and” joins values, the source holds several entries; their conditions need not be identical. Equal values may be shown once. Entries after “also recorded” stand apart in the source; their conditions may differ. Residues, ends and D or L forms follow the SMILES beside them. *: point of attachment. Cbz = O=C(OCc1ccccc1)*; CH2F = FC*

Legend:
RAW 264.7 cells [1] = format: cell-based, mouse
B. anthracis spores [2] = conditions: in vivo
RAW 264.7 cells [3] = format: cell-based, mouse; remark: listed apart in the source
[4] = tested on: Fas expression in RAW 264.7 cells; format: cell-based, mouse
RAW 264.7 cells [5] = format: cell-based, mouse; remark: listed apart in the source
B. anthracis spores [6] = conditions: in vivo; remark: listed apart in the source
anthrax (Sterne) spores = tested on: anthrax (Sterne) spores; parameters: species or system B. anthracis
[7] = tested on: human PBMCs infected with anthrax (Sterne) spores; format: cell-based
[8] = tested on: RAW 264.7 cells infected with anthrax (Sterne) spores; format: cell-based, mouse
RAW 264.7 cells [9] = format: cell-based, mouse; remark: listed apart in the source
RAW 264.7 cells [10] = format: cell-based, mouse; remark: listed apart in the source
[11] = mouse, in vivo, ip; cited from earlier work
[12] = tested on: human peripheral blood monocytes / PBMCs; format: cell-based
RAW 264.7 cells [13] = format: cell-based, mouse; conditions: 4 h

## COc1cccc(-c2cc(=O)c3ccccc3o2)c1N [PD 98059]
RAW 264.7 cells [1]
  antitoxin effect (cell survival, MTT): did not display an antitoxin effect; also recorded: do not increase cell survival; also recorded: none of these inhibitors increased cell survival

## CO/C1=C\C(C)=C\[C@@H](C)[C@@H](O)[C@@H](C)C/C(C)=C/C=C/[C@H](OC)[C@@H]([C@@H](C)[C@@H](O)[C@H](C)[C@@]2(O)C[C@@H](O)[C@H](C)[C@@H](C(C)C)O2)OC1=O [bafilomycin A1]
B. anthracis spores [2]
  survival of mice: dead by 11 days

## TNF-α
RAW 264.7 cells [3]
  effect of murine cytokine on cell lysis by LeTx: greatly increased cell lysis
[4]
  Fas expression after stimulation with cytokine: greatly increased

## COC(=O)CC[C@H](NC(=O)[C@H](CC(C)C)NC(=O)OCc1ccccc1)C(=O)N[C@@H](Cc1cnc[nH]1)C(=O)N[C@@H](CC(=O)OC)C(=O)CF [inhibitor of caspase-9, Z-LEHD-FMK] (Cbz-LE(OMe)HD(OMe)-CH2F)
RAW 264.7 cells [5]
  protection of cells against LeTx (membrane permeability staining): unable to protect

## COC(=O)CC[C@H](NC(=O)[C@H](Cc1c[nH]c2ccccc12)NC(=O)OCc1ccccc1)C(=O)N[C@@H](Cc1cnc[nH]1)C(=O)N[C@@H](CC(=O)OC)C(=O)CF [inhibitor of caspase 1, Z-WEHD-FMK] (Cbz-WE(OMe)HD(OMe)-CH2F)
RAW 264.7 cells [5]
  protection of cells against LeTx (membrane permeability staining): different degree of protection

## CC[C@H](C)[C@H](NC(=O)[C@H](CCC(=O)OC)NC(=O)[C@@H](NC(=O)OCc1ccccc1)C(C)C)C(=O)N[C@@H](CC(=O)OC)C(=O)CF [inhibitor of caspase 6, Z-VEID-FMK] (Cbz-VE(OMe)ID(OMe)-CH2F)
RAW 264.7 cells [5]
  protection of cells against LeTx (membrane permeability staining): most active

## COC(=O)C[C@H](NC(=O)[C@H](C)NC(=O)[C@@H](NC(=O)[C@H](CC(=O)OC)NC(=O)[C@@H](NC(=O)OCc1ccccc1)C(C)C)C(C)C)C(=O)CF [inhibitor of caspase 2, Z-VDVAD-FMK] (Cbz-VD(OMe)VAD(OMe)-CH2F)
RAW 264.7 cells [5]
  protection of cells against LeTx (membrane permeability staining): different degree of protection

## CC[C@H](C)[C@H](NC(=O)OCc1ccccc1)C(=O)N[C@@H](CCC(=O)OC)C(=O)N[C@H](C(=O)N[C@@H](CC(=O)OC)C(=O)CF)[C@@H](C)O [inhibitor of caspase 8, Z-IETD-FMK] (Cbz-IE(OMe)TD(OMe)-CH2F)
RAW 264.7 cells [5]
  protection of cells against LeTx (membrane permeability staining): most active

## NC[C@@H]1O[C@H](O[C@H]2[C@@H](O)[C@H](O[C@@H]3[C@@H](O)[C@H](N)C[C@H](N)[C@H]3O[C@H]3O[C@H](CN)[C@@H](O)[C@H](O)[C@H]3N)O[C@@H]2CO)[C@H](N)[C@@H](O)[C@@H]1O [neomycin]
B. anthracis spores [6]
  survival of mice after 10 days: less than 20%
B. anthracis spores [2]
  mice alive after 11 days: 100%

## CC(C)C[C@H](NC(=O)[C@@H](O)[C@H](N)Cc1ccccc1)C(=O)O [bestatin]
Anthrax (Sterne) spores
  intrinsic antibiotic activity: undetectable
B. anthracis spores [6]
  mice dead by day 9: more than 30%
[7]
  killing (bactericidal) activity of human PBMCs: increased in a concentration dependent manner; also recorded: restores a bactericidal activity
[8]
  bactericidal activity of Raw 264.7 cells: restores a bactericidal activity
B. anthracis spores [2]
  survival of mice: dead by 11 days

## trypsin
B. anthracis spores [2]
  survival of mice: dead by 11 days

## Z-YVAD [inhibitor of caspase 4]
RAW 264.7 cells [5]
  protection of cells against LeTx (membrane permeability staining): most active

## COC(=O)CC[C@H](NC(=O)[C@H](CC(=O)OC)NC(=O)OCc1ccccc1)C(=O)N[C@H](C(=O)N[C@@H](CC(=O)OC)C(=O)CF)C(C)C [inhibitor of caspase 3, Z-DEVD-FMK]
RAW 264.7 cells [5]
  protection of cells against LeTx (membrane permeability staining): different degree of protection

## IL-6: cytokine
RAW 264.7 cells [9]
  cell viability relative to cells treated with toxin only (MTT): increased cell viability

## GM-CSF: recombinant murine granulocyte-macrophage colony stimulating factor
RAW 264.7 cells [3]
  effect of murine cytokine on cell lysis by LeTx: increased cell survival
[4]
  Fas expression after stimulation with cytokine: greatly increased
RAW 264.7 cells [10]
  overall cell survival and relative number of apoptotic cells in presence of LeTx: substantially increased
  prevention of LeTx-induced apoptosis: incapable of preventing apoptosis completely
  protection of Raw 264.7 cells from LeTx: partially protected
B. anthracis spores [2]; ip
  mice survived after 24 days: 20%
[11]
  toxicity in mice: No toxicity

## C[S+]([O-])c1ccc(-c2nc(-c3ccncc3)c(-c3ccc(F)cc3)[nH]2)cc1 (stereo not drawn) [SB 203580]
RAW 264.7 cells [1]
  antitoxin effect (cell survival, MTT): not able to decrease the effect of LeTx; also recorded: do not increase cell survival; also recorded: none of these inhibitors increased cell survival

## CCN(CC)CCCC(C)Nc1ccnc2cc(Cl)ccc12 (stereo not drawn) [chloroquine]
B. anthracis spores [2]
  survival of mice: dead by 11 days

## COC(=O)C[C@H](NC(=O)[C@H](C)NC(=O)[C@@H](NC(=O)OCc1ccccc1)C(C)C)C(=O)CF [Z-VAD-fmk, benzyloxycarbonyl-Val-Ala-Asp-fluoromethylketone] (Cbz-Val-Ala-Asp(OMe)-CH2F)
B. anthracis spores [2]
  survival of mice: dead by 11 days
B. anthracis spores [2]; ip
  mice alive by day 15: 20%
  mice survived by day 15: 20% and 10%

## O=C(O)c1cn(C2CC2)c2cc(N3CCNCC3)c(F)cc2c1=O [ciprofloxacin]
B. anthracis spores [6]
  mice alive after 15 days: approximately 50%
  survival of mice by day 12: 50%
B. anthracis spores [2]
  mice alive after 11 days: 100%
  mice survived at least 14 days: 100%
  protection of mice (FIG. 29): complete protection
  survival (FIG. 29): 10%

## COc1ccc(CCN(C)CCCC(C#N)(c2ccc(OC)c(OC)c2)C(C)C)cc1OC (stereo not drawn) [verapamil]
B. anthracis spores [2]
  survival of mice: dead by 11 days

## CN[C@@H]1C[C@H]2O[C@@](C)([C@@H]1OC)n1c3ccccc3c3c4c(c5c6ccccc6n2c5c31)C(=O)NC4 [staurosporine]
[12]
  fluorescence pattern (YO-PRO-1) of human monocytes: fluorescence pattern typical of apoptotic cells
RAW 264.7 cells [13]
  mitochondrial transmembrane potential (JC-1 staining): JC-1 staining changes similar to LeTx

B1: IL-12: murine interleukin-12 (protein, UniProt P29459 23-219; P29460 23-328, looked up)
Interleukin-12 subunit alpha: RNLPVATPDPGMFPCLHHSQNLLRAVSNMLQKARQTLEFYPCTSEEIDHEDITKDKTSTVEACLPLELTKNESCLNSRETSFITNGSCLASRKTSFMMALCLSSIYEDLKMYQVEFKTMNAKLLMDPKRQIFLDQNMLAVIDELMQALNFNSETVPQKSSLEEPDFYKTKIKLCILLHAFRIRAVTIDRVMSYLNAS
Interleukin-12 subunit beta: IWELKKDVYVVELDWYPDAPGEMVVLTCDTPEEDGITWTLDQSSEVLGSGKTLTIQVKEFGDAGQYTCHKGGEVLSHSLLLLHKKEDGIWSTDILKDQKEPKNKTFLRCEAKNYSGRFTCWWLTTISTDLTFSVKSSRGSSDPQGVTCGAATLSAERVRGDNKEYEYSVECQEDSACPAAEESLPIEVMVDAVHKLKYENYTSSFFIRDIIKPDPPKNLQLKPLKNSRQVEVSWEYPDTWSTPHSYFSLTFCVQVQGKSKREKKDRVFTDKTSATVICRKNASISVRAQDRYYSSSWSEWASVPCS
RAW 264.7 cells [3]
  effect of murine cytokine on cell lysis by LeTx: without effect

B2: IL-4: cytokine (protein, UniProt P05112 25-153, looked up)
Interleukin-4: HKCDITLQEIIKTLNSLTEQKTLCTELTVTDIFAASKNTTEKETFCRAATVLRQFYSHHEKDTRCLGATAQQFHRHKQLIRFLKRLDRNLWGLAGLNSCPVKEANQSTLENFLERLKTIMREKYSKCSS
RAW 264.7 cells [9]
  cell viability relative to cells treated with toxin only (MTT): increased cell viability

B3: IFN-γ: recombinant mouse interferon-gamma (protein, UniProt P01579 24-161, looked up)
Interferon gamma: QDPYVKEAENLKKYFNAGHSDVADNGTLFLGILKNWKEESDRKIMQSQIVSFYFKLFKNFKDDQSIQKSVETIKEDMNVKFFNSNKKKRDDFEKLTNYSVTDLNVQRKAIHELIQVMAELSPAAKTGKRKRSQMLFRG
RAW 264.7 cells [3]
  effect of murine cytokine on cell lysis by LeTx: increased cell susceptibility to lysis
[4]
  Fas expression after stimulation with cytokine: greatly increased
